Measurements: ChEMBL document CHEMBL1121724 (J Med Chem, 1981)

Tested on: Thromboxane-A synthase (Oryctolagus cuniculus)
Assay: not given
Details: at 100 µM

Compound	inhibition
c1cn[nH]c1	8.9%
c1ccnnc1	16.8%

Now from value to compound:

inhibition	Compound
11%	c1ncncn1
17.3%	c1cscn1

Target: Thromboxane-A synthase (Oryctolagus cuniculus)
Assay: Inhibitory activity against Thromboxane synthetase
Details: not given

Compound	IC50
CC/C(=C\c1ccc(Cc2cccnc2)cc1)C(=O)O	7 nM
O=C(O)CCCCCCCc1cccnc1	76 nM
O=C(O)CCCCCc1cccnc1	86 nM
O=C(O)CCCCc1cccnc1	500 nM
O=C(O)CCCCCCCc1ccncc1	> 1000 nM
O=C(O)CCCCn1ccnc1	> 1000 nM
O=C(O)CCCCCCc1ccncc1	> 1000 nM
C/C(=C\c1ccc(Cc2cccnc2)s1)C(=O)O	12 nM
O=C(O)CCCCCc1ccncc1	> 1000 nM
C/C(=C\c1ccc(C(C)c2cccnc2)cc1)C(=O)O (stereo not drawn)	25 nM
C/C(=C/c1ccc(Cc2cccnc2)cc1)C(=O)O	3 nM
CC(Cc1ccc(Cc2cccnc2)cc1)C(=O)O (stereo not drawn)	20 nM
O=C(O)/C=C/c1ccc(Cc2cccnc2)cc1	10 nM

The remaining lines, values ahead:

IC50	Compound
68 nM	O=C(O)CCCCCCc1cccnc1
4 nM	C/C(=C\c1ccc(Cn2ccnc2)cc1)C(=O)O
210 nM	O=C(O)CCc1ccc(Cc2cccnc2)cc1
> 1000 nM	O=C(O)CCCCc1ccncc1
5 nM	O=C(O)/C(Br)=C/c1ccc(Cc2cccnc2)cc1
18 nM	C/C(=C\C(=O)O)c1ccc(Cc2cccnc2)c(C)c1
47 nM	O=C(O)/C=C/c1ccc(Cc2cccnc2)s1
56 nM	C/C(=C\C(=O)O)c1ccc(Cc2cccnc2)cc1
> 1000 nM	O=C(O)CCCCCn1ccnc1
> 1000 nM	C/C(=C\c1ccc(Cc2ccncc2)cc1)C(=O)O

Target: T1, Thromboxane-A synthase (Homo sapiens) (UniProt P24557)
T1 sequence (whole entry): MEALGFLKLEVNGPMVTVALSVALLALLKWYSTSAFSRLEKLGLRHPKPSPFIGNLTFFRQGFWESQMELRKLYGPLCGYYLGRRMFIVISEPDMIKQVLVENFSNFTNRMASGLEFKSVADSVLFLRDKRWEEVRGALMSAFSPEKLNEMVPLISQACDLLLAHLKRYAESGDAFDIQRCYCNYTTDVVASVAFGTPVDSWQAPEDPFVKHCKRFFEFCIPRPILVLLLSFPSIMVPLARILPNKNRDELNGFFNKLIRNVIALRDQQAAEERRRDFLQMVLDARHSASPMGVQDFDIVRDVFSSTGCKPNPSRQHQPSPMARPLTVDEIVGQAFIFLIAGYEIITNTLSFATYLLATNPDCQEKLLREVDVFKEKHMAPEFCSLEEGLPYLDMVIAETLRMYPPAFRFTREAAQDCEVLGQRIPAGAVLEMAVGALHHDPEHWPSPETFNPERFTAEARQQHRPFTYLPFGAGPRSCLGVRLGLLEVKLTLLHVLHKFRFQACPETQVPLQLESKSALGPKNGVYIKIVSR
Assay: Inhibition of Thromboxane synthetase at 100 µM
Details: not given

inhibition	Compound
12%	c1cncnc1
